Results taken from patent US11254654B2, “Heterochromatin gene repression inhibitors” (The University of North Carolina at Chapel Hill, priority 2017, dated 2022).
Where a name gives a salt, the structure may show the parent alone.

Experiments:
CiA:Oct4 N118/N163 cells = assay: Minus rapamycin counter screen for toxicity and cell differentiation; assay type: cell-based; settings: 10 μM compound, no rapamycin, 48 hrs
Procedure: Day 0, CiA:Oct4 N118/163 cells were grown in ES media and seeded at a density of 10,000 cells per well (100,000 cells/mL) into gelatin coated 96 well plates. Day 1, media was aspirated and replaced with […] fresh ES media containing +/−6 nM rapamycin and 10 μM dilution of compounds from the EpiG compound set. Day 2, 100 μL fresh ES media containing +/−6 nM rapamycin and 10 μM dilution of compounds from the EpiG compound set was added as on Day 1. Day 3, the media was aspirated out of the wells and the cells were washed with PBS and trypsinized using 0.25% trypsin-EDTA. Trypsin was quenched with serum. Cells were resuspended by pipetting to prepare the plates for flow cytometry analysis.
Flow cytometry was performed using an Intellicyt iQue Screener and analyzed with FlowJo software. Cell populations were gated based on forward and side scatter area. Single cell populations were isolated using forward scatter area by forward scatter height gating. Dead or dying cells that equally fluoresced in the GFP and APC channels upon excitation with 488 nm laser were omitted as autofluorescent, and the remaining cells were gated into GFP (−) and GFP (+) populations. […] Statistics were performed using standard T-test analysis.
The CiA:Oct4 N118/N163 recruitment system also functions as an internal counter screen for toxicity and cell differentiation in the absence of rapamycin recruited csHP1α. […]

csHP1γ = csHP1γ inhibition assay, CiA:Oct4 N118/N192 cells; assay type: cell-based, mouse; settings: 5 μM, 48 hrs, + 6 nM rapamycin
Procedure: Day 0, CiA:Oct4 N118/N192 cells were grown and cultured in 96 well plate format with 10,000 cells seeded per well. Day 1, media was aspirated and replaced with fresh ES media containing 5 μM of top screen compounds and +/−6 nM rapamycin. Day 2, media was aspirated and replaced with fresh ES media containing 5 μM of top screen compounds and +/−6 nM rapamycin. Day 3, wells were aspirated and washed with PBS prior to sample preparation and analysis by flow cytometry.
After 48-hrs of 5 μM compound treatment with and without rapamycin, the % GFP (+) populations were determined by flow cytometry analysis.
Flow cytometry analysis was used to determine the % GFP (+) population. Data was converted to % inhibition for the +rapamycin samples. Experiments were performed in biological triplicate. (n≥3) (p≤0.05*, 0.01**).

G9a = molecular target: T1, G9a (Homo sapiens, UniProt Q96KQ7); assay: In vitro activity against G9a; assay type: biochemical; settings: data not shown
T1 sequence (Q96KQ7 1-1210): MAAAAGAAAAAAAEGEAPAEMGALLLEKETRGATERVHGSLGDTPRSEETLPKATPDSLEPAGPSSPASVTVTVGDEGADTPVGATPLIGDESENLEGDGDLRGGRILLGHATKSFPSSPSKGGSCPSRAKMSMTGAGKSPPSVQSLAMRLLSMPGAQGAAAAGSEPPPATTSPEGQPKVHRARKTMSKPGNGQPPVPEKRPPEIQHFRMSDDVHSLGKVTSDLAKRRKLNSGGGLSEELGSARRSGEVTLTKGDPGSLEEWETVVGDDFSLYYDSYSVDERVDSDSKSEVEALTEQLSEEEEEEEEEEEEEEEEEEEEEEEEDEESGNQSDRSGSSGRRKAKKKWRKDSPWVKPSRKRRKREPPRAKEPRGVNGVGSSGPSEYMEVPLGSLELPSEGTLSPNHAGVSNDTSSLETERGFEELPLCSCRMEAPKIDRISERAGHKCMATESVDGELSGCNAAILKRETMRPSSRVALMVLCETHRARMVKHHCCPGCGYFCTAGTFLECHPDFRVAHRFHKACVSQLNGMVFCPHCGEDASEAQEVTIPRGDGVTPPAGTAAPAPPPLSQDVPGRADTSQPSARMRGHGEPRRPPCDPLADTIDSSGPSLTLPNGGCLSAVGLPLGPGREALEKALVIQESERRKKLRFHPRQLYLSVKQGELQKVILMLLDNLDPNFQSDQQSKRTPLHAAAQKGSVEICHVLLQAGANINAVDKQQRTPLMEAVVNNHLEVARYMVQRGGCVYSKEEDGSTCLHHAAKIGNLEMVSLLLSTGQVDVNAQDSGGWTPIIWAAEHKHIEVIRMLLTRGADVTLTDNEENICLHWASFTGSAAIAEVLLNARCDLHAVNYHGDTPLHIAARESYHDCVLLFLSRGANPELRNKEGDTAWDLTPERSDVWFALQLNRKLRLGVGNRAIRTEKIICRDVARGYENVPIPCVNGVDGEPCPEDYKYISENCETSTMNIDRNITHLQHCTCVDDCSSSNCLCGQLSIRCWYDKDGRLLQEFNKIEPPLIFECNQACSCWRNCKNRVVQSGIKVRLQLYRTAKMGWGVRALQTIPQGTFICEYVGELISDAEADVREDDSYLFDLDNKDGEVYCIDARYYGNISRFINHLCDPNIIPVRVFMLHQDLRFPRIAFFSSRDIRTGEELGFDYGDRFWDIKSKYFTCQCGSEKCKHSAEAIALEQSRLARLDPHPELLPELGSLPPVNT

Q: `COc1cc2nc(N3CCCC3)nc(N[C@H]3CCCNC3)c2cc1OC` [compound 1, (S)-6,7-Dimethoxy-N-(Piperidin-3-yl)-2-(Pyrrolidin-1-yl)Quinazolin-4-Amine Trifluoroacetic Acid Salt] was tested. Which “GFP positive population levels without csHP1α recruitment” value (CiA:Oct4 N118/N163 cells) did it give?
A: The value was “did not decrease GFP positive population levels”.

Q: What about the “Inhibition of csHP1γ-mediated repression of CiA:Oct4 locus” value (csHP1γ) of the same compound?
A: The value was “most potent inhibitors of csHP1γ”.

Q: And the “Activity against G9a in vitro” value (G9a)?
A: Its value is “no detectable activity”.
